Here are results for one molecule from US4268630A, “Microbiological production of ketones from C3 -C6 alkanes” (priority 1979, dated 1981).

The subject of experiment [1] is cell-free secondary alcohol dehydrogenase (SADH) system. Description: Cofactor requirement of cell-free soluble extracts oxidizing 2-butanol. Format: biochemical. The method, then:
To prepare the cell-free secondary alcohol dehydrogenase (SADH) system, the washed cells were disrupted with a Wave Energy Ultrasonic Oscillator, Model W201 (Wave Energy System, Inc., Newtown, Pa.) and centrifuged at 20,000× g. for 30 minutes. […] The enzyme activity was measured with a fluorescence spectrophotometer (Perkin Elmer, Model MPF 44A) by following the formation of reduced NAD (EX 340 nm, Em 460 nm). The formation of reduced NAD was also followed with an absorption spectrophotometer at 340 nm. The assay system (3 ml.) contained: potassium phosphate buffer pH 7.0; 150 μmol.; NAD 1 μmol.; a given amount of enzyme preparation; and secondary alcohol 10 μmol. The reaction was started by the addition of substrate. One unit of enzyme activity represents the reduction of one μmole NAD per minute. Protein concentrations were determined by the Lowry method (J. Biol. Chem., 193: 255-275 (1951)).

Experiment [2] concerns secondary alcohol dehydrogenase. Description: Activity of purified yeast-derived secondary alcohol dehydrogenase. Particulars: purified enzyme. In kind it is biochemical, Pichia sp. NRRL Y-11,328.
In experiment [3] the test system is cell-free extracts of strain ATCC 21439. The note with it: fluorescence spectrophotometry.
Experimental: The reaction mixtures 3 ml (1.0 mg protein) were incubated at 30°
C. for 10 min. (exp. 1) and for 20 min. (exp. 2) in the presence of 1.0
^(a) Determined gas chromatographically.
^(b) Determined fluorescence spectrophotometrically. Endogenous
consumption of NAD was corrected.

Like-named read-outs stand apart in the source and are kept apart here.

Turning to `NC(=O)c1ccc[n+]([C@@H]2O[C@H](COP(=O)([O-])OP(=O)(O)OC[C@H]3O[C@@H](n4cnc5c(N)ncnc54)[C@H](O)[C@@H]3O)[C@@H](O)[C@H]2O)c1` [NAD, Nicotinamide adenine dinucleotide], the “effectiveness as cofactor for oxidation of 2-butanol” value in experiment [1] is on record as “required”. The “ability to act as electron acceptor/carrier” value in experiment [2] is recorded as “required”. The “NAD Consumed” value is 270 nmol in experiment [3] (Experiment 1: 10 min) and 540 nmol in experiment [3] (Experiment 2: 20 min).
